Results as given in patent US20080009448A1, “Peptide Derivative” (priority 2006, published 2008).
Read-outs that look alike come from different tables or passages of the source.

Key:
Format in all cases: in vivo, mouse
inflammatory pain model = test: Rheumatoid arthritis / inflammatory pain model (CFA), Von Frey filament method; settings: for ED50: Mus musculus, po, read-out: ED50 of the anti-nociceptive activity calculated using the unit-time AUC value
Procedure: Experimental animal, male ddy type mice (Nihon SLC), weighing the body weight in the range of 15 to 20 g, were used for the studies. The animals had been kept under constant conditions (room temperature 23±1° C., humidity 52±2%, 12 hours light-and-dark cycle having light time 7:00 to 19:00 and dark time 19:00 to 7:00) until used for an experiment. The animals were fed the mouse solid diet (F2, Funabashi farm. Funabashi, Japan) with unrestricted tap water intake, and kept in captivity for at least more than two days in a laboratory.
A mouse was firmly fixed without anesthesia and 25 μL of Complete Freund's Adjuvant (CFA) using a number 30 guage needle (Termo) was subcutaneously administered into the dorsum of left hind foot to provide an inflammatory pain model. The model was kept under the conditions noted above until used for the test.
Measurement of anti-nociceptive activity on the inflammatory pain model was conducted according to Von Fray filament method as well as on never damaged model 5 days after CFA administration. The drugs were orally administered.
The anti-nociceptive activity is represented as a unit AUC value (AUC/min) which is the total AUC value or AUC divided by the measurement time and compared to study. ED50 of the anti-nociceptive activity was calculated by reducing the measurement value to a percentage of the upper limit which was set as 2.0 for the unit AUC.

[1] = test system: nerve damage model animal; test: Allodynia experiment, nerve damage model (partial sciatic nerve ligation), Von Frey filament method; settings: for anti-allodynia effect in animals with ligated sciatic nerve: s.c. administration, Von Frey filament
Procedure: Further the anti-nociceptive activity test using a nerve damage model envisioning a neuropathic pain was performed.
Preparation of the Nerve-Damage Model was Conducted According to the model created by Seltzer (partial sciatic nerve ligation: RSL model).
Specifically the amount of 0.1 mL/10 g of Nembutal solution 7 times diluted with Ringer's solution (Fuso Pharmaceutical Kogyo) was injected into the peritoneal cavity of mouse using 26 gauge needle (Termo) to give anesthetic. The animal was lain on its stomach, its femoral skin was cut open to incise through the fascia, the part between the heads of the biceps femoris was cut and then its sciatic nerve was fixed. The ⅓ to ½ part of the […] around the sciatic nerve detached without damaging was completely ligated with a nylon suture thread No. 9 (Natsume Seisakusho) using a vascular needle 000 spring hole (Natsume Seisakusho). Further the cut skin was sutured with the silk thread No. 2 (Natsume Seisakusho) using a surgical needle 1 spring needle (Natsume Seisakusho). After the operation, the mice had been kept until the testing date under the above conditions.
The measurement of allodynia effect on the nerve-damage model animals was conducted according to the Von Frey filament method 7 days after the nerve ligation.
Then a few kinds of filaments having different strength of stimulus (Touch-test Sensory Evaluator Instruction North Coast Medical Inc.) were pushed perpendicularly on the sole of the hinder leg until the filament was bent.
Further, for comparison, the left lower leg of the animal without nerve-damage was also stimulated and the threshold values were measured. AUCs (the area surrounded with the time-reaction curve and the base line of a graph showing the relationship between the time after administration (time-course) and % MPE) were calculated from the obtained results. Antiallodynia activity obtained from the AUC divided by the measuring time was compared as strength of activity per unit of the time period.

pressure stimulation = test: Tail-pressure test; settings: either oral or subcutaneous administration (FIG. 67, 68)
Procedure: The maximum pressure was 100 mmHg. The mice used for the experiment reacted to the pressure range between 40 mmHg and 50 mmHg in pre-selective experiment. A few mice or a few dozen of mice under the same condition were stimulated by adding pressure and respective threshold values for the pain reaction were measured in constant intervals after administration in accordance with different drugs administered and the different dosage thereof. According to the measurement value of the pain reaction threshold value, a percent of maximum possible effect, (% of MPE) was calculated using the following formula to quantify the anti-nociceptive activity. % of MPE=[(Pt−P0)/(Pc−Po)]×100 (in the formula, Po is a pain reaction threshold value before drug administration; Pt is a pain reaction threshold value t minute after drug administration; and Pc is a maximum simulative pressure)
The mouse which reacted to 532 through 665 Pa (40-50 mmHg) was reselected for the test. In addition the maximal stimulating pressure was set as 1333 Pa (100 mmHg). Then % MPE at this point was calculated from formula (1) as well as noted above.

Molecule | ED50 (inflammatory pain model; CFA administered foot) [mg/kg] | ED50 (inflammatory pain model; CFA non-administered foot) [mg/kg] | lasting time of anti-nociceptive activity (inflammatory pain model; mice, CFA model, oral) [min] | peak of anti-nociceptive activity after administration (inflammatory pain model; mice, CFA model, oral) [min] | anti-allodynia effect in animals with ligated sciatic nerve [1] | lasting period of anti-nociceptive activity compared with morphine ([1]; nerve damage model, s.c., at dose of equal activity) | dosage providing the same AUC, as part of morphine dosage (pressure stimulation)
CN1CC[C@]23c4c5ccc(O)c4O[C@H]2[C@@H](O)C=C[C@H]3[C@H]1C5 [Morphine] | 113 | 67.9 | 360 | 30 | significantly decreased |  | 
Iminoethyl-[Tyr]-[D-Met(O)]-[Phe]-[N-MeβAla]-NHCH3 [SS8225-07] |  |  |  |  | decrease of anti-allodynia effect was not observed at any doses | about twice longer | one hundredth through one twentieth
